Laboratory results reported in PMC5423902, “CXCL9-Derived Peptides Differentially Inhibit Neutrophil Migration In Vivo through Interference with Glycosaminoglycan Interactions” (Frontiers in Immunology, 2017).
Where two headings read alike, the source gives them in different places.

Experiments:
[1] = Isothermal fluorescence titration (IFT), CS; type: binding; details: for Kd: isothermal fluorescence titration, TAMRA-labeled peptide, read-out: affinity (KD) for CS
Description: To study the interaction between CXCL9(74-93) and GAGs, titration experiments were performed as described by Gerlza et al. ([46]) using TAMRA-labeled synthetic CXCL9(74-93), TAMRA-labeled synthetic CXCL9(74-103), HS (Iduron BN1, Manchester, UK), low molecular weight heparin (LMWH; Iduron BN5), and chondroitin sulfate (CS; Carbosynth, Compton, UK).

[2] = test system: cellular GAGs on CHO cells; test: Binding of biotinylated peptides to CHO cells (cellular GAGs), flow cytometry; type: cell-based, Chinese hamster; details: for binding to CHO cells: NH2-terminally biotinylated peptide, streptavidin-allophycocyanin
Description: Chinese hamster ovary (CHO) cells were a gift from M. Parmentier (ULB, Brussels, Belgium) and were cultured in Ham’s F-12 medium (with L-glutamine; Lonza, Belgium) supplemented with 10% fetal calf serum (FCS) and 0.8% G418 (Geneticin®; Life Technologies), as described ([44]). To inhibit sulfation of cellular GAGs, CHO cells were cultured in the presence of 100 mM sodium chlorate (NaClO3) for 24 h as previously described ([42]).
Binding of biotinylated CXCL9(74-103) and CXCL9(74-93) to CHO cells was assessed by flow cytometry as recently described ([42]). Briefly, cells were detached with phosphate-buffered saline (PBS) with 0.02% ethylenediaminetetraacetic acid (EDTA) and incubated with NH2-terminally biotinylated peptides. Subsequently, cells were incubated with streptavidin-allophycocyanin (BD Biosciences, San Jose, CA, USA) and analyzed by flow cytometry (FACSCalibur, BD Biosciences). To confirm inhibition of sulfation of cellular GAGs, part of the cells were stained with a mouse monoclonal anti-human HS antibody (Immunosource, Schilde, Belgium) and a secondary phycoerythrin-labeled goat anti-mouse antibody (BD Biosciences). Finally, cells were analyzed by flow cytometry. Analogously, binding of 100 nM biotinylated CXCL8 in the presence or absence of CXCL9(74-103) or CXCL9(74-93) was compared on CHO cells.
Figure 2 CXCL9(74-93) interacts with cellular glycosaminoglycans (GAGs). The interaction of the COOH-terminal CXCL9 peptides with Chinese hamster ovary (CHO) cells was assessed by flow cytometric analysis. (A) CHO cells were treated with dilutions of NH2-terminally biotinylated CXCL9(74-103) and CXCL9(74-93), which were detected by streptavidin-allophycocyanin. (B) To ensure that the binding of CXCL9(74-93) was GAG-mediated, CHO cells were treated with sodium chlorate (NaClO3) to reduce the sulfation of GAGs. Binding of biotinylated CXCL9(74-93) to cells, treated or untreated with NaClO3, was detected by streptavidin-allophycocyanin. The mean (+SEM) fluorescence intensity of bound biotinylated CXCL9 peptides to CHO cells is indicated on the y-axis (n ≥ 4). A statistical comparison to evaluate the binding of biotinylated peptides on CHO cells [compared to the corresponding concentration of CXCL9(74-103) (A) or to the binding to cells not treated with NaClO3 (B)] was performed using the Mann–Whitney U-test (*p < 0.05; **p < 0.01).

[3] = test system: CXCL1(1-72) binding to chondroitin sulfate (CS); test: Competition with CXCL1 for binding to immobilized CS; parameters: species or system murine; details: n ≥ 3, Figure 6B; for maximum inhibition of CXCL1 binding to CS: maximum achieved
Description: The ability of the COOH-terminal peptides of CXCL9 and CXCL4 to compete for GAG binding with the inflammatory chemokines CXCL8 and CXCL1 was evaluated on heparin-binding plates [BD Biosciences or produced by Jason Whittle (School of Engineering/Future Industries Institute, University of South Australia, Australia)] ([42], [47]). In brief, GAGs (heparin, HS, and CS; Iduron; 25 µg/ml) were coated overnight at room temperature. Dilutions of COOH-terminal CXCL9 or CXCL4 peptide combined with recombinant human CXCL8(1-77) or recombinant murine CXCL1(1-72) (Peprotech, Rocky Hill, NJ, USA) were added in duplicate and incubated for 2 h at 37°C. Subsequently, bound CXCL8 or CXCL1 was detected with biotinylated polyclonal rabbit anti-human CXCL8 or biotinylated polyclonal goat anti-mouse CXCL1 (Peprotech) and horse radish peroxidase-labeled streptavidin. Finally, the peroxidase activity was quantified at 450 nm.
Competition between CXCL1 and COOH-terminal CXCL9 peptides for binding to immobilized heparan sulfate (HS) (A) and chondroitin sulfate (CS) (B) was performed. […] Bound CXCL1 was detected with biotinylated polyclonal goat anti-mouse CXCL1 antibodies. The mean (± SEM) percentage inhibition of CXCL1 binding to GAGs is indicated on the y-axis (n ≥ 3). Statistical comparison of the different competitors with CXCL9(74–103) was performed using the Mann–Whitney U-test.

[4] = previously reported; read-out: KD for LMWH; cited from earlier work
Description: To obtain more insight in the contribution of the unique COOH-terminal region of CXCL9 and in the specificity of CXCL9-derived peptides for different GAGs, the affinity of CXCL9(74–93) for LMWH, HS, and CS was determined by IFT. […] A biphasic binding isotherm was obtained when titrating CXCL9(74-93) with HS, indicating more than one binding site for the peptide on this GAG. Fitting only the initial high-affinity phase, a KD ...

[5] = test system: MSU crystal-induced neutrophil migration; details: murine model; cited from earlier work
Excerpt: Because of their essential role for the migration of leukocytes, chemokines and their GPCRs can serve as potential targets for the development of new anti-inflammatory drugs ([24]–[26]). Several neutralizing ligands or antibodies, modified chemokines or small molecules have been developed as antagonists ([27]–[30]). However, only two chemokine receptor antagonists are currently used as therapeutics, namely, Maraviroc (a CCR5 antagonist) and AMD3100 (a CXCR4 antagonist) ([31], [32]). Remarkably, these antagonists are not used as anti-inflammatory drugs, but, respectively, as an inhibitor of hum ...

Row | amount needed for same reduction of CXCL1 binding to CS relative to CXCL9(74-103) [3] | Substance | Kd [1] [nM] | binding to CHO cells after reduction of GAG sulfation ([2]; CHO cells treated with 100 mM NaClO3 (24 h) vs untreated, biotinylated peptide, Figure 2B) | affinity to cellular GAGs relative to CXCL9(74-103) ([2]; CHO cells, biotinylated peptides, n ≥ 4, Figure 2A) | binding to CHO cells ([2]; n ≥ 4, Figure 2A) | maximum inhibition of CXCL1 binding to CS [3] [%] | relative affinity for CS ([1]; compared to CXCL9(74-93)) | Kd [4] [nM] | inhibition of neutrophil extravasation in MSU crystal-induced gout [5]
1 | three times more | 74KKKQKNGKKHQKKKVLKVRK93 [CXCL9(74-93), COOH-terminal peptide of CXCL9 lacking the 10 COOH-terminal amino acids of CXCL9(74-103)] | 296 ± 19 | significantly reduced | lower affinity to cellular GAGs | dose-dependent binding | 52 | – | – | –
2 | – | 74KKKQKNGKKHQKKKVLKVRKSQRSRQKKTT103 [CXCL9(74-103), COOH-terminal peptide of CXCL9] | 68 ± 4.6 | – | – | dose-dependent binding | 63 | about fourfold higher affinity for CS | 61 | able to inhibit neutrophil extravasation
